Tested on: STAT3
Assay: STAT3-dependent luciferase reporter assay in MDA-MB-231-STAT3 stable cells
Format: cell-based, human
Details: 20 μM; for Rel. luciferase activity (%) 1: experiment 1, relative to DMSO; for Rel. luciferase activity (%) 2: experiment 2, relative to DMSO; for Rel. luciferase activity (%) 3: experiment 3, relative to DMSO; for Rel. luciferase activity (%) Mean: mean of experiments, relative to DMSO; for inhibition of luciferase expression compared to DMSO vehicle control: significant = p value less than 0.05
Procedure: FIG. 12. Identification of active inS3-54 analogues. (A) Effects of inS3-54 analogues on STAT3-dependent luciferase expression. MDA-MB-231 cells with stable STAT3-dependent luciferase expression were treated with DMSO control, 20 μM inSTAT3-54 or its analogues (A1-A79), followed by measurement of luciferase activity. (*p<0.05; **p<0.01; ***p<0.001).
MDA-MB-231-STAT3 stable cell line with high level of STAT3-dependent luciferase expression was exposed to candidate compounds at 20 μM in DMSO for 48 hours based on previous studies, and luciferase activity was measured using a luciferase assay kit (Promega, USA), following manufacturer's instructions. The final DMSO concentration in this and following assays was 0.1% (vol/vol).

`COc1cccc(N2C(=O)C(=Cc3ccc([N+](=O)[O-])cc3)C=C2c2ccccc2)c1` [Compound A41] was tested, and the “Rel. luciferase activity (%) 1” value was 60.5%, the “Rel. luciferase activity (%) 2” value was 79.5% and the “Rel. luciferase activity (%) 3” value was 81.2%. The “Rel. luciferase activity (%) Mean” value was 73.7% and the “inhibition of luciferase expression compared to DMSO vehicle control” value (from here on “inhibition … compared to DMSO vehicle control”) was “significantly inhibited”.

`O=C1C(=Cc2ccc([N+](=O)[O-])cc2)C=C(c2ccccc2)N1c1ccccc1O` [Compound A42] was tested, and the “Rel. luciferase activity (%) 1” value was 100.8%, the “Rel. luciferase activity (%) 2” value was 145.3% and the “Rel. luciferase activity (%) 3” value was 100.8%. For the same compound, the “Rel. luciferase activity (%) Mean” value was 115.6%.

For `COC(=O)c1ccc(N2C(=O)C(=Cc3ccc([N+](=O)[O-])cc3)C=C2c2ccccc2)cc1` [Compound A43], the “Rel. luciferase activity (%) 1” value was 98.6%, the “Rel. luciferase activity (%) 2” value was 100.4% and the “Rel. luciferase activity (%) 3” value was 66.9%. For the same compound, the “Rel. luciferase activity (%) Mean” value was 88.6%.

For `CCN(CC)c1ccc(N2C(=O)C(=Cc3ccc([N+](=O)[O-])cc3)C=C2c2ccccc2)cc1` [Compound A45], the “Rel. luciferase activity (%) 1” value was 60.9%, the “Rel. luciferase activity (%) 2” value was 89.3% and the “Rel. luciferase activity (%) 3” value was 71.6%. For the same compound, the “Rel. luciferase activity (%) Mean” value was 73.9% and the “inhibition … compared to DMSO vehicle control” value was “significantly inhibited”.

For `O=C1C(=Cc2ccc([N+](=O)[O-])cc2)C=C(c2ccccc2)N1c1ccc2ccccc2c1` [Compound A46], the “Rel. luciferase activity (%) 1” value was 156.2%, the “Rel. luciferase activity (%) 2” value was 147.8% and the “Rel. luciferase activity (%) 3” value was 64.9%. The “Rel. luciferase activity (%) Mean” value was 122.9%.

With `CC(=O)Nc1ccc(N2C(=O)C(=Cc3ccc([N+](=O)[O-])cc3)C=C2c2ccccc2)cc1` [Compound A47] the “Rel. luciferase activity (%) 1” value was 106.8%, the “Rel. luciferase activity (%) 2” value was 108.8% and the “Rel. luciferase activity (%) 3” value was 43.3%. For the same compound, the “Rel. luciferase activity (%) Mean” value was 86.3%.

With `O=C1C(=Cc2ccc([N+](=O)[O-])cc2)C=C(c2ccccc2)N1c1ccc(Cl)c(Cl)c1` [Compound A48] the “Rel. luciferase activity (%) 1” value was 87.5%, the “Rel. luciferase activity (%) 2” value was 108.6% and the “Rel. luciferase activity (%) 3” value was 42.5%. The “Rel. luciferase activity (%) Mean” value was 79.5%.

With `O=C1C(=Cc2ccc([N+](=O)[O-])cc2)C=C(c2ccccc2)N1c1ccc(Nc2ccccc2)cc1` [Compound A49] the “Rel. luciferase activity (%) 1” value was 93.7%, the “Rel. luciferase activity (%) 2” value was 124.2% and the “Rel. luciferase activity (%) 3” value was 90.2%. For the same compound, the “Rel. luciferase activity (%) Mean” value was 102.7%.

`COC(=O)c1cccc(N2C(=O)C(=Cc3ccc(OC)cc3)C=C2c2ccccc2)c1` [Compound A50] was tested, and the “Rel. luciferase activity (%) 1” value was 168.6%, the “Rel. luciferase activity (%) 2” value was 187.0% and the “Rel. luciferase activity (%) 3” value was 153.6%. The “Rel. luciferase activity (%) Mean” value was 169.7%.

`COc1ccc(C=C2C=C(c3ccccc3)N(c3cccc4ccccc34)C2=O)cc1` [Compound A51] was tested, and the “Rel. luciferase activity (%) 1” value was 42.2%, the “Rel. luciferase activity (%) 2” value was 71.0% and the “Rel. luciferase activity (%) 3” value was 56.6%. The “Rel. luciferase activity (%) Mean” value was 56.6% and the “inhibition … compared to DMSO vehicle control” value was “significantly inhibited”.

In the case of `COc1ccc(C=C2C=C(c3ccccc3)N(c3ccc(Cl)c(Cl)c3)C2=O)cc1` [Compound A52], the “Rel. luciferase activity (%) 1” value is reported as 39.5%, the “Rel. luciferase activity (%) 2” value is reported as 141.9% and the “Rel. luciferase activity (%) 3” value is reported as 77.7%. The “Rel. luciferase activity (%) Mean” value was 86.4%.

With `COc1ccc(C=C2C=C(c3ccccc3)N(c3ccc(F)cc3)C2=O)cc1` [Compound A53] the “Rel. luciferase activity (%) 1” value was 45.4%, the “Rel. luciferase activity (%) 2” value was 113.0% and the “Rel. luciferase activity (%) 3” value was 47.4%. The “Rel. luciferase activity (%) Mean” value was 68.6%.

With `COC(=O)c1ccc(N2C(=O)C(=Cc3ccc(OC)cc3)C=C2c2ccccc2)cc1` [Compound A54] the “Rel. luciferase activity (%) 1” value was 77.8%, the “Rel. luciferase activity (%) 2” value was 100.8% and the “Rel. luciferase activity (%) 3” value was 41.7%. For the same compound, the “Rel. luciferase activity (%) Mean” value was 73.5%.

With `COc1ccc(C=C2C=C(c3ccccc3)N(c3ccc4ccccc4c3)C2=O)cc1` [Compound A56] the “Rel. luciferase activity (%) 1” value was 150.7%, the “Rel. luciferase activity (%) 2” value was 143.4% and the “Rel. luciferase activity (%) 3” value was 76.2%. For the same compound, the “Rel. luciferase activity (%) Mean” value was 123.4%.

Reference: patent US9382204B2, “Inhibitors targeting the DNA-binding domain of human STAT3 for treatment of metastatic cancers” (Indiana University Research and Technology Corporation, priority 2013, dated 2016)
